Laboratory results taken from patent US20250339443A1, “METHOD FOR TREATING OR PREVENTING CALCIUM RELEASE-ACTIVATED CALCIUM CHANNEL OR DISCOIDIN DOMAIN RECEPTOR 2 RELATED DISORDERS OR CONDITIONS” (LumiSTAR Biotechnology, Inc., priority 2023, published 2025).

Molecular target: T1, DDR2 (Homo sapiens, UniProt Q16832)
T1 construct: expressed in transfected cells; host or cells: HEK293T
T1 sequence (Q16832 22-855): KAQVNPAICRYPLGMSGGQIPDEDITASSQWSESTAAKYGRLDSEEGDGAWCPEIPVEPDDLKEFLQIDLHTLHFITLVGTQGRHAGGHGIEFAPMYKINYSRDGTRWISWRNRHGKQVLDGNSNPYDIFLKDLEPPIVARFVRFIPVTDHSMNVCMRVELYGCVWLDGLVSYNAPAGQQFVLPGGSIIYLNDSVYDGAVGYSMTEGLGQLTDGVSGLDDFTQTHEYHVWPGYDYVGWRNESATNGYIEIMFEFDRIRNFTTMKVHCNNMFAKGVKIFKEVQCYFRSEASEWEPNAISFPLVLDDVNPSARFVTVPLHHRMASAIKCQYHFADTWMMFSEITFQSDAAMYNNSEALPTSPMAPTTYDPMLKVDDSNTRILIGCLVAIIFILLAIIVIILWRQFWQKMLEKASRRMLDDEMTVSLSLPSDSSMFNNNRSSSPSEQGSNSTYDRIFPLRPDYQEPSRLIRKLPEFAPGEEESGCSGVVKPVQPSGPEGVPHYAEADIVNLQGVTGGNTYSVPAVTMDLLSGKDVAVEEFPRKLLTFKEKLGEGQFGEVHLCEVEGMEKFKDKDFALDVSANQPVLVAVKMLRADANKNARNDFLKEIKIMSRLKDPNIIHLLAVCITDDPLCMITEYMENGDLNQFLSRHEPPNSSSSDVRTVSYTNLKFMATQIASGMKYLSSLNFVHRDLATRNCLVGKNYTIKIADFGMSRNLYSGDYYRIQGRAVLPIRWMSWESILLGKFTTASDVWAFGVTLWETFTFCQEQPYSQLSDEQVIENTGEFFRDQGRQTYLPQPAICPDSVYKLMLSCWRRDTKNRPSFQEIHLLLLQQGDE
Experiment: DDR2 activation (anti-phosphotyrosine Western blot) in HEK293T cells overexpressing DDR2, collagen-stimulated
Type: cell-based
Conditions: 10 μM pretreatment 30 minutes, then 50 μg/mL type I collagen 12 hours
Method: FIG. 1A, FIG. 1B, FIG. 1C, FIG. 1D, FIG. 1E, FIG. 1F, FIG. 1G, FIG. 1H, FIG. 1I, FIG. 1J, FIG. 1K, FIG. 1L, FIG. 1M, and FIG. 1N show WRG-28 and atovaquone (Av) suppress the activation of DDR2 and calcium release-activated calcium (CRAC) channel. FIG. 1A indicates HEK293T cells were transiently overexpressed with DDR2 and then pretreated with different compounds (10 μM), including WRG-28, Av, donepezil hydrochloride (Dh), terazosin hydrochloride (Th), verapamil and flecainide for 30 minutes. Verapamil and flecainide were used as negative control here. After that, cells were treated with 50 μg/mL type I collagen for 12 hours. Cell lysates were harvested and subjected to Western blot analysis with antibodies against phosphotyrosine antibody (clone 4G10), DDR2, and β-actin. […] CRAC channel activity was evaluated by applying 1 μM thapsigargin (Thap.) in a calcium-free solution to deplete the endoplasmic reticulum calcium store, followed by the reintroduction of 2 mM Ca^2+ in an external solution. […] Further analyses are presented in FIG. 1I and FIG. 1J, where the second peak of each wave and rate of entry were analyzed. […] The Orai1 and Stim1 puncta in HEK293T cells overexpressed with CFP-Orai1/Stim1-mCherry were assessed. […]
Cell lysates were harvested in RIPA buffer (150 mM NaCl, 1 mM EGTA, 50 mM Tris pH 7.4, 10% glycerol, 1% Triton X-100, 1% sodium deoxycholate, 0.1% SDS, and protease inhibitor cocktail) and collected from culture dish with cell scrapers. […] The protein expression levels were assessed by specific primary antibodies, including antibodies against phosphotyrosine (clone 4G10; Millipore), DDR2 (R&D), α-SMA (Sigma), Collagen 1a1 (Boster), E-cadherin (BD Biosciences), SGLT2 (Proteintech), NHE1 (Novus) and β-actin (Clone C4, Millipore), followed by incubating with secondary antibodies conjugated with HRP and detected by ECL kit (Thermo Scientific).
To examine the impact of these compounds on DDR2 activation, HEK293T cells overexpressing DDR2 were pretreated with various compounds. […] The activation of DDR2 was evaluated using an anti-phosphotyrosine antibody. […]

SMILES: CCNS(=O)(=O)c1ccc(COc2ccc3nc4ccc(=O)cc-4oc3c2)cc1 [WRG-28]
- activation of DDR2 (phosphotyrosine): suppress
